The source of these data is patent US10799433B2, “Foaming antimicrobial compositions” (S.C. Johnson & Son, Inc., priority 2016, dated 2020).

The test system of the assay is C. albicans 10231. As to the kind of experiment: Skin conditioner impact on antimicrobial efficacy. The assay is classed as cell-based, Candida albicans. The conditions noted are these: skin conditioner added to prototype composition. The source says: FIG. 6 is a bar graph showing the effect on the antimicrobial efficacy (average log reduction of C. albicans 10231) for three prototype antimicrobial compositions sharing all the same ingredients but differing in the amount of added PEG-45 palm kernel glycerides (ranging from 0 to 1.0%) in comparison to a commercial antimicrobial soap (ECOLAB Equi-Soft™ soap).

For PEG-45 palm kernel glycerides, the “impact on the efficacy” value is “negative impact”.
